{"source": "patent US20090304654A1", "about": "“METHODS FOR ISOLATING ADIPOSE-DERIVED STEM CELLS AND THERAPEUTIC USE THEREOF” (REGENTS OF THE UNIVERSITY OF CALIFORNIA, priority 2008, published 2009)", "system": "RADSC-1 cells", "assay": "Endothelial-inducing factors: LDL-uptake and endothelial markers of ADSC in subtraction/addition media and with FGFR inhibitor", "assay_type": "cell-based, rat", "conditions": "for LDL-uptake ability on omission of the factor from EGM2: one week in subtraction EGM2; for LDL-uptake ability in EBM2 supplemented with the factor: one week in addition media", "method": "RADSC-1 cells were grown in fully or partially supplemented EGM2 and then assayed for LDL-uptake. Each partially supplemented EGM2 is indicated by the omitted factor; for example, “−FGF” denotes EGM2 without FGF2. Experiments were repeated 3 times.\nRADSC-1 cells were grown in EGM2, EBM2, or EBM2 supplemented with the indicated factor, and then assayed for LDL-uptake. Experiments were repeated 3 times.\nRADSC-1 cells were grown in EGM2 or EBM2 supplemented with FGF2 and vitamin C in the presence or absence of FGFR inhibitor PD173074. The cells were then assayed for LDL-uptake. Red color indicates the presence of LDL, which was in a conjugated form with the red fluorescence dye DiI. RADSC-1 cells were also grown in VEGF/vitamin C-supplemented EBM2 for the purpose of excluding the involvement of VEGF signaling, as PD173074 is known to have a weak inhibitory effect on VEGF receptor. Experiments were repeated 3 times.\nEGM2 medium is supplied by the manufacturer in the form of a basal medium (EBM2) and individual vials of supplemental factors. […] Specifically, we prepared “subtraction” EGM2 media by omitting one supplemental factor at a time.\nThe above experiments identified FGF2 as the only growth factor required for the induction of ADSC's LDL-uptake ability. We then tested whether FGF2 was able to induce the expression of additional endothelial characteristics. RADSC-1 cells were grown in DMEM, EGM2, or EBM2 supplemented with FGF2 and vitamin C. They were then stained for endothelial markers CD31, vWF, and eNOS, and tested for tube formation.\nIn the absence of PD173074 (with the addition of solvent only), cells grown in either the completely supplemented EGM2 or the FGF2/vitamin C-supplemented EBM2 acquired the LDL-uptake ability (FIG. 23)."}
{"compound": "CCN(CC)CCCCNc1ncc2cc(-c3cc(OC)cc(OC)c3)c(NC(=O)NC(C)(C)C)nc2n1", "note": "[PD173074]", "values": [{"measurement": "acquisition of LDL-uptake ability in the presence of inhibitor", "setting": "cells in EGM2 or FGF2/vitamin C-supplemented EBM2", "result": "unable to do so"}]}
{"compound": "C[C@]12CCC(=O)C=C1CC[C@@H]1[C@@H]2[C@@H](O)C[C@@]2(C)[C@H]1CC[C@]2(O)C(=O)CO", "note": "[hydrocortisone]", "values": [{"measurement": "LDL-uptake ability on omission of the factor from EGM2", "result": "essentially no effect"}]}
{"compound": "O=C1O[C@H]([C@@H](O)CO)C(O)=C1O", "note": "[vitamin C]", "values": [{"measurement": "LDL-uptake ability in EBM2 supplemented with the factor", "result": "still somewhat effective, but at a much reduced level"}, {"measurement": "LDL-uptake ability on omission of the factor from EGM2", "result": "greatly diminished LDL-uptake ability"}]}
{"compound": "EGF: epidermal growth factor, supplement of EGM2 (NSDSECPLSHDGYCLHDGVCMYIEALDKYACNCVVGYIGERCQYRDLKWWELR; UniProt P01133 971-1023, looked up)", "values": [{"measurement": "LDL-uptake ability on omission of the factor from EGM2", "result": "essentially no effect"}]}
{"compound": "FGF2: growth factor supplement of EGM2", "values": [{"measurement": "LDL-uptake ability in EBM2 supplemented with the factor", "result": "still effective, albeit at a reduced level"}, {"measurement": "LDL-uptake ability on omission of the factor from EGM2", "result": "greatly diminished LDL-uptake ability"}]}
{"compound": "VEGF", "values": [{"measurement": "LDL-uptake ability on omission of the factor from EGM2", "result": "essentially no effect"}]}
{"compound": "heparin", "values": [{"measurement": "LDL-uptake ability on omission of the factor from EGM2", "result": "essentially no effect"}]}
